Measured values as given in paper doi:10.1101/2025.02.17.638454, “Synergistic RAS-MAPK and AKT Activation in MYC-Driven Tumors via Adjacent PVT1 Rearrangements” (bioRxiv, 2025).
No end group written: not given here.

Experiments:
[1] = system: phospho-MEK1/2, phospho-ERK1/2, phospho-p90RSK (RAS/MAPK pathway); assay: Western blot of RAS/MAPK effectors in NCI-H1792; format: cell-based; settings: NCI-H1792 (mutant KRAS^G12C), doxycycline-induced HNB, 1 μg/mL Dox 48 h
Description: (§1) For whole-cell lysate, the cell pellet was resuspended in RIPA buffer (Cell Signaling Technologies, Danvers, MA) supplemented with a protease inhibitor cocktail (Cell Signaling Technologies) and incubated on ice for 20 minutes. The lysate was then centrifuged at 14,000 revolutions/minute for 10 minutes at 4°C, and the supernatant was harvested. Protein concentration was quantified by BCA Protein Assay Kit (Thermo Fisher Scientific) as per kit protocol. Next, 20 μg of whole-cell lysate was electrophoresed on a 4%–20% gradient polyacrylamide gel with SDS (Bio-Rad, Hercules, CA) and electroblotted onto polyvinylidene difluoride membranes (Bio-Rad). Membranes were blocked in Tris-buffered saline with 5% nonfat milk and 0.1% Tween and probed with antibodies. Bound proteins were detected with horseradish-peroxidase–conjugated secondary antibodies (Cell Signaling Technologies) and SuperSignal West Femto (Thermo Fisher Scientific). […]
(§2) The HNB ORF and eGFP (control) were cloned in an inducible lentivirus expression, TRE-gateway plasmid (pLIX_403, Addgene, #41395). […] The protein lysates were collected and quantified using the previously described protocol. […] Bound proteins were detected with horseradish-peroxidase–conjugated secondary antibodies (Cell Signaling Technologies) and SuperSignal West Femto (Thermo Fisher Scientific). […]

[2] = system: MYC; assay: q-RT-PCR of MYC transcript in D458; format: cell-based, human; settings: D458, induction of HNB (-/+ Dox); n=3, unpaired t-test
Description: (§3) Total RNA was extracted with the TRIzol (Roche, Indianapolis, IN) as described by the manufacturer and complementary DNA synthesis, 1 μg of total RNA was reverse transcribed by using the GoScriptTM Reverse Transcription Mix, Random Primer Protocol (Promega, Madison, WI). Real-time PCR was run in triplicate using PowerUpTM SYBRTM Green Master Mix (Thermo Fisher Scientific), following the manufacturer’s instructions. Real-time PCR amplification monitoring was performed using the CFX96 Touch Real-Time PCR Detection System (Bio-Rad). Data were expressed as relative mRNA levels normalized to the GAPDH, served as endogenous normalization control expression levels in each sample, and are represented as mean ± standard error of the mean between 2 independent experiments unless otherwise indicated in the figure legend. The primer sequences are listed in the Supplementary Table.
(§4) The HNB ORF and eGFP (control) were cloned in an inducible lentivirus expression, TRE-gateway plasmid (pLIX_403, Addgene, #41395). Lentivirus was produced in HEK293T cells using the protocol described above. […] The protein lysates were collected and quantified using the previously described protocol. […] Bound proteins were detected with horseradish-peroxidase–conjugated secondary antibodies (Cell Signaling Technologies) and SuperSignal West Femto (Thermo Fisher Scientific). […]

[3] = system: MYC; assay: q-RT-PCR of MYC transcript in COLO-320DM; format: cell-based, human; settings: COLO320DM, induction of HNB (-/+ Dox); n=3, unpaired t-test, 0.0011
Description: as §3, §4

[4] = system: phospho-MEK1/2, phospho-ERK1/2, phospho-p90RSK (RAS/MAPK pathway); assay: Western blot of RAS/MAPK effectors in D458; format: cell-based
Description: as §1, §2

[5] = system: HALLMARK_MYC_TARGETS; assay: GSEA MYC targets, SK-PN-DW; format: cell-based, human; settings: si.CircPVT1 vs si.Ctrl, n=3, Padj = 0.010
Excerpt: RNAseq processing: Raw reads were mapped to the hg19 human reference genome using the STAR aligner (v.2.5.0a) 66. PCR-duplicated reads and low mapping quality reads (MQ score below 20) were removed using Picard tools and SAMtools, respectively. Aligned reads were counted using htseq-count (v.0.6.1p1) 69 and normalized according to size factors method from DESeq2 70. We used fold change ≥2 and FDR <0.05 as the determination of differentially expressed genes (DEG). […]
Supplementary Figure 9: Gene set enrichment analysis scores (GSEA) analysis for MYC targets genes in COLODM320 (A,B) and SK-PN-DW (C,D) treated with si.CircPVT 1. si.Ctrl was used as control . n=3, for each treatment condition .
(also on this page, place not known: Enrichment Score Enrichment Score si.CircPVT1. control. condition. Enrichment Score Enrichment Score .CC-BY licenseavailable preprintthis https://doi.org/10.1101/2025.02.17.638454doi:) […]

Substance | phosphorylation of MEK1/2, ERK1/2 and p90RSK [1] | MYC mRNA level [2] | MYC mRNA level [3] | phosphorylation of MEK1/2, ERK1/2 and p90RSK ([4]; D458 (wild type KRAS), doxycycline-induced HNB, 1 μg/mL Dox 48 h, n=3, unpaired t-test) | ERK1/2 phosphorylation ([4]; D458, ectopic (doxycycline-inducible) expression, HNB vs mutant, Figure 5L) | NES, HALLMARK_MYC_TARGETS_V1 [5] | NES, HALLMARK_MYC_TARGETS_V2 [5]
MKTQLGAVKGFLHV [HNB] | significantly dampened the phosphorylation | significantly reduced MYC expression at the mRNA as well as the protein levels | significantly reduced MYC expression at the mRNA as well as the protein levels | significantly dampened the phosphorylation | significantly diminished ERK1/2 phosphorylation | – | –
si.CircPVT1: siRNA targeting the junction sequence of CircPVT1, 5’-UGGGCUUGAGGCCUGAUCUUU-3’ (other strand not given here) | – | – | – | – | – | -1.653 | -1.789
